Key:
[1] = system: C. albicans; assay: Minimum inhibitory concentration, two-fold broth dilution (Method B); assay type: cell-based, Candida albicans; conditions: C. albicans in Method B; text summary of MIC table (table is an image)
Experimental: (§1) The minimum inhibitory concentration of the test compound was determined by two-fold broth dilution tests in yeast carbon base medium, containing 200 pg/ml of sodium glutamate. The compounds were diluted from […] to 0.25 pg/ml and the test medium was inoculated with a suspension of C. albicans grown in the same medium for 15 hours at 37°. The final inoculum sizes in the tests were approximately 10^4 cfu/ml and 10^3 cfu/ml. The tubes were incubated at 37° for 24 and 48 hours and observed for inhibition.

[2] = Stability of a-substituted glycine peptides in aqueous buffer (Ellman colorimetric assay); assay type: physicochemical; conditions: for half-life: 0.2 M phosphate buffer (pH 7.0), no enzyme, read-out: stable (t)
[3] = system: Leucine Aminopeptidase; assay: Enzyme catalyzed warhead release (Ellman colorimetric assay); assay type: biochemical, hog; conditions: pH 7.0; linear rate over the observation period (5 min)
Experimental: In each case upon addition of the enzyme, Leucine Aminopeptidase, the warhead was released. The release was maintained at a linear rate over the observation period (5 min). […] These observations are consistent with literature reports of the optimal pH necessary for the efficacy of this enzyme. These observations were obtained by colorimetric assay, which involves the reaction between a free sulfhydryl group and 5,5'-dithio-bis(2-nitrobenzoic acid), the Ellman reagent, to produce a yellow color as follows: [drawing 44] The peptide from Example 4 was dissolved in 4 mM of phosphate buffer solution (pH 7) containing the Ellman reagent at a level of 4 mg/ml to produce a 1 mM solution of the peptide. The resulting mixture was monitored using a spectrophotometer at a wavelength of 412 nm. To 1 ml of this solution was added 100 µg of hog kidney leucine aminopeptidase (Sigma) and the enzymatic hydrolysis was continuously monitored at 412 nm.

[4] = system: representative fungal and bacterial organisms; assay: Biological screen of the utility (antimicrobial) example; assay type: cell-based; conditions: product of first deblocking, later found not completely deblocked
Experimental: A prototypal compound, L-alanyl-2-(5-fluorouracil-2-yl)-L-glycine, was evaluated against representative fungal and bacterial organisms.
Candida albicans strains B―311 and BC 759, obtained from Smith Kline and French Laboratory Culture Collection were grown in a trypticase soy broth at 28° for 7 hours. The seeded plates, with this medium containing 1.5% agar, were prepared by inoculating 1 ml of the inoculum in 1 I of yeast-carbon base medium, containing 200 µg/ml of lysine or glutamate as a sole source of nitrogen.
as §1
A method similar to A above but using E. coli was used which employs a M-9 medium (basic salts with ammonium ion as the nitrogen source and glucose as the carbon source).

half-life [2] | SMILES | antifungal activity [1] | further results
– | C[C@H](N)C(=O)NC(C(=O)O)n1cc(F)c(=O)[nH]c1=O (mixture of isomers) [L-, DL, L-alanyl-2-(5-fluorouracil-1-yl)-D,L-glycine] | antifungal activity | –
> 83.3 h | C[C@H](N)C(=O)NC(SCCNc1cc(C(=O)O)nc(C(=O)O)c1)C(=O)O (stereo partly shown) [Example 4] | – | non-enzymatic warhead release ([2]; pH 7.5): no noticeable increases; warhead release upon addition of the enzyme [3]: released
– | C[C@H](N)C(=O)NC(NNS(=O)(=O)c1cc(C(=O)O)cc(C(=O)O)c1)C(=O)O (stereo partly drawn) [Example 12, L-alanyl-2-(3,5-dicarboxy-phenylsulfohydrazino)-D,L-glycine] | – | activity in the biological screen [4]: not active
> 83.3 h | C[C@H](N)C(=O)NC(Sc1ccccc1)C(=O)O (stereo partly drawn) [Example 13, L-alanyl-2-(thiophenyl)-D,L-glycine] | – | –
– | C[C@H](N)C(=O)NC(C(=O)O)n1cc(F)c(=O)[nH]c1=O (stereo partly drawn) [L-L, L-alanyl-2-(5-fluorouracil-2-yl)-L-glycine] | antifungal activity | –

Reference: patent EP0094815B1, “Oligopeptide prodrugs” (SMITHKLINE BECKMAN CORPORATION, priority 1982, dated 1983)
